Patent US12145915B1 (priority 2023, dated 2024)
≈ marks a conversion by molar mass, not a printed value.

Columns and labels:
[1] = system: MDR strain of Mycobacterium tuberculosis; assay: microbe, parasite or virus in culture; assay type: cell-based; settings: read-out: Anti-tubercular activity against Mycobacterium tuberculosis (μg/mL) MDR (MIC)
[2] = system: XDR strain of Mycobacterium tuberculosis; assay: microbe, parasite or virus in culture; assay type: cell-based; settings: read-out: Anti-tubercular activity against Mycobacterium tuberculosis (μg/mL) XDR (MIC)

Row | Compound | MIC [1] | MIC [2]
1 | Cc1nc(-c2ccc(OCC(C)C)c(C#N)c2)sc1C(=O)N/N=C/c1ccc(F)c(Oc2ccccc2)c1 [KNV-TZL1, (E)-2-(3-Cyano-4-isobutoxyphenyl)-N-(4-fluoro-3-phenoxybenzylidene)-4-methylthiazole-5-carbohydrazide] | 32 µg/mL (≈ 60.5 µM) | 128 µg/mL (≈ 242 µM)
2 | COc1cc(/C=N/NC(=O)c2sc(-c3ccc(OCC(C)C)c(C#N)c3)nc2C)ccc1O [KNV-TZL2, (E)-2-(3-Cyano-4-isobutoxyphenyl)-N-(4-hydroxy-3-methoxybenzylidene)-4-methylthiazole-5-carbohydrazide] | 64 µg/mL (≈ 138 µM) | 64 µg/mL (≈ 138 µM)
